We go through 6 molecules from patent US11661400B2, “NADPH oxidase inhibitors, pharmaceutical composition comprising the same, and application thereof” (TAIWANJ PHARMACEUTICALS CO., LTD., priority 2018, dated 2023).

One test addresses T1, NOX2 (Homo sapiens, UniProt P04839).
T1 construct: HL-60 cells, rich in NOX2 expression; endogenous in cells; host or cells: DMSO-differentiated HL-60
T1 sequence (P04839 2-570 limits assumed): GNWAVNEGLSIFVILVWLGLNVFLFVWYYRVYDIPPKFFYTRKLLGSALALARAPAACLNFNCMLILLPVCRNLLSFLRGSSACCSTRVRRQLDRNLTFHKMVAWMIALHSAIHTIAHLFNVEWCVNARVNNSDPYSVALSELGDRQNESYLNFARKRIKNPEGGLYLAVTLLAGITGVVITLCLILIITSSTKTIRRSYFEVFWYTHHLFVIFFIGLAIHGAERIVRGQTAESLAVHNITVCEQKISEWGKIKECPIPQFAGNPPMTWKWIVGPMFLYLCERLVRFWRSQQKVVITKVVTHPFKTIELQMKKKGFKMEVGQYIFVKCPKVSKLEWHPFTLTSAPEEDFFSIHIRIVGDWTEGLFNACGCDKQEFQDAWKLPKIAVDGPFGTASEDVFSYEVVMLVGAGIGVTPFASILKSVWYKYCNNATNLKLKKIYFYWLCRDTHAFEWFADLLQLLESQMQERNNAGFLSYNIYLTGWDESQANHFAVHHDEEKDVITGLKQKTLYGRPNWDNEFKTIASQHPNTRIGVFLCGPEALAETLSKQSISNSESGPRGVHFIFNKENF
T1 sequence (P13498 2-195 partner limits assumed): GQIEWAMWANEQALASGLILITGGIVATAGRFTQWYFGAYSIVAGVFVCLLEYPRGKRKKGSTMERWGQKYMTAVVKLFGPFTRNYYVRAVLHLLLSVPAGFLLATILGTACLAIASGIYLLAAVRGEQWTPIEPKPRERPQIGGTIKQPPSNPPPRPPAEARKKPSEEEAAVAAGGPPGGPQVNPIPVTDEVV
The experiment in a line: NOX2 HL60 cell-based assay (PMA oxidative burst, L012 chemiluminescence). The note with it: DMSO-differentiated HL-60 cells, PMA-stimulated; for inhibition at 0.1 µM: HL-60, 100 nM; for inhibition at 1 µM: HL-60, 1000 nM. On the procedure: NOX2 HL60 Cell-Based Assay:
HL-60 cells, rich in NOX2 expression, was stimulated to undergo oxidative burst by phorbol myristate acetate (PMA). The ROS produced during this process was measured using the O2^−-specific chemiluminescent probe L012. L012 was added to DMSO-differentiated HL-60 cell suspensions to a final concentration of 100 μM. Then, 80 μL aliquots of cell suspension (2.5×10^5 cells) were transferred to individual wells of a 96-well plate. Test compounds were directly added to the wells at the specified concentrations. Following a 30-60 mins incubation at 37° C. in the dark, the oxidative burst was initiated by the addition of 10 ng/mL PMA, and the chemiluminescence signal was recorded every 5 min over a period of 60 mins in a SpectraMax i3 Multiplate reader (Molecular Devices, Sunnyvale, Calif., USA). • NOX4 HEK293 Overexpression Cell-Based Assay: […]

Another test concerns the target T2, NOX1 (Homo sapiens, UniProt Q9Y5S8).
T2 construct: endogenous in cells; host or cells: HT29
T2 sequence (Q9Y5S8 1-564): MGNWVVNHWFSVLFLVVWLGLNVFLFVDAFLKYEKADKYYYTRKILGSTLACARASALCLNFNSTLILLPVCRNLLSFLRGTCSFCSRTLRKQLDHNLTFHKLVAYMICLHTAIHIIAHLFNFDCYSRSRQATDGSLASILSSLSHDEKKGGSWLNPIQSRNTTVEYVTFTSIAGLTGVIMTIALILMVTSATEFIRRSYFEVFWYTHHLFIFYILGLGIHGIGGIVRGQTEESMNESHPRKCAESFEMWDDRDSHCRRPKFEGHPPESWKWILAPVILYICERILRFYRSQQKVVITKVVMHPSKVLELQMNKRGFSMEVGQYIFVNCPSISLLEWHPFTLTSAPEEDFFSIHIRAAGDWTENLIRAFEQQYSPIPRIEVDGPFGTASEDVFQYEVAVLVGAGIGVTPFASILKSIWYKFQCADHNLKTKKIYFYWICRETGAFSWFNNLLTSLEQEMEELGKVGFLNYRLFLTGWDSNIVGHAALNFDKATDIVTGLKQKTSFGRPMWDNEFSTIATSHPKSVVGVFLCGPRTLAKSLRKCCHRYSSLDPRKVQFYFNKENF
T2 sequence (P13498 2-195 partner limits assumed): T1 sequence (P13498 2-195 partner limits assumed)
The experiment in a line: NOX1 HT29 cell-based assay (luminol/HRP luminescence). The note with it: HT29 cells, DMSO = 0%, GKT137831 = 100%; for inhibition at 0.1 µM / inhibition at 1 µM: HT-29. On the procedure:
NOX1 HT29 Cell-Based Assay:
HT29 cells were cultured in T75 flask (Corning) and when 70-80% confluence was reached, cells were trypsinized, harvested in HBSS and counted. 1-2×10^5 cells were dispensed into individual wells in 70 μl final volume (96-well plates, white Corning). Cells were treated for 30-60 mins at 37° C. with 10 μl of GKT137831, DMSO and test compounds from their respective assay plates. This will correspond to a final concentration of 100 nM, 1000 nM GKT137831 or test compounds, and 0.1% DMSO. 20 μL of a mixture containing 100 μM luminol plus 0.4 units of HRP (final concentration) was added. Luminescence was quantified using a SpectraMax i3 Multiplate reader (Molecular Devices, Sunnyvale, Calif., USA). As designed, compounds that inhibit NOX1 activity will reduce cellular ROS production, leading to reduced probe-ROS interactions and reduced well luminescence. Compounds were tested in duplicate at a concentration of 100 nM and 1000 nM. DMSO and GKT137831 wells were applied as negative and positive controls, and the activities measured were set to 0% and 100%, respectively.

The target of a further test is T3, NOX4 (Homo sapiens, UniProt Q9NPH5).
T3 construct: expressed in transfected cells
T3 sequence (Q9NPH5 1-578): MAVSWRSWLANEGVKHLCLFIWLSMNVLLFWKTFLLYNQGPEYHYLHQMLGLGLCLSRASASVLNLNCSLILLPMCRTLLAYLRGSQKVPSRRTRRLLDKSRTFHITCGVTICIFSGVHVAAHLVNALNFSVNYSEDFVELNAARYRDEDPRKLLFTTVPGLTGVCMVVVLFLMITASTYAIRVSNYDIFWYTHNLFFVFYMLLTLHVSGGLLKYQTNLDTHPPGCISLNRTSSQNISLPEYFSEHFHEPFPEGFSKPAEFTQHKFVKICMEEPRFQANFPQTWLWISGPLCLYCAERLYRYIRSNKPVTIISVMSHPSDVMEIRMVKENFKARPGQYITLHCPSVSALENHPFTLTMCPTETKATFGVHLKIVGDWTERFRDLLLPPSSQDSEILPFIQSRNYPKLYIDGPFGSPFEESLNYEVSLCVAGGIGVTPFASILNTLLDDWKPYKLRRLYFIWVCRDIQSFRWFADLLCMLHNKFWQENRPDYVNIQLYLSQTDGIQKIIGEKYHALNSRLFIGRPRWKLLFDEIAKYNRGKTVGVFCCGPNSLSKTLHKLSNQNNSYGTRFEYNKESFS
T3 sequence (P13498 2-195 partner limits assumed): T1 sequence (P13498 2-195 partner limits assumed)
In words: NOX4 HEK293 overexpression cell-based assay (Amplex Red H2O2). The note with it: HEK293 cells stably overexpressing NOX4, DMSO = 0, GKT137831 = 100; for inhibition at 1 µM: HEK293, 1000 nM. On the procedure: Extracellular H2O2 measurement using Amplex™ Red Hydrogen Peroxide/Peroxidase Assay Kit (Catalog number: A22188; Invitrogen, Carlsbad, Calif., USA) was used to detect extracellular H2O2 release by HEK293 cells stably overexpressing NOX4. NOX4 clonal cells in log-phase growth were trypsinized, washed, and dispersed thoroughly. Following trypsinization, the cells (3×10^4) were resuspended in 100 μL of 1× Krebs-Ringer phosphate glucose (KRPG) buffer containing various concentrations of GKT137831 or test compounds and incubated at 37° C. for 30 min. Cells were mixed with 100 μL of Amplex Red reagent solution containing 50 μM Amplex Red and 0.1 units/mL of HRP in KRPG buffer; each assay condition was evaluated induplicate. The samples were incubated at 37° C. for 90 mins in the dark, and then centrifuged at 2,500 g for 5 mins. The supernatants were loaded to a 96 well plate, and then measured using a SpectraMax i3 Multiplate reader (Molecular Devices, Sunnyvale, Calif., USA) at 530 nm excitation and 590 nm emission respectively. DMSO and GKT137831 wells were applied as negative and positive controls, and the activities measured were set to 0 and 100, respectively.

Consider `CCOc1ccccc1-c1[nH]c2cc(OC)c(OC)cc2c(=O)c1O` [Compound 21], for which the inhibition at 0.1 µM is not above 19% on NOX2 and not below 80% at NOX1 (100 nM). Moreover, the results for the inhibition at 1 µM against NOX2, on NOX1 (1000 nM) and against NOX4 were 50 to 79%, not below 80% and not below 80%, respectively. Further, at NOX4 (100 nM), the “% Inhibition NOX4” value is listed as “C (the percent of inhibition of NOX by the compounds ranges from 2000 to 49%)”.
As to `COc1cc(Br)c(-c2[nH]c3cc(OC)c(OC)cc3c(=O)c2O)c(OC)c1` [Compound 27], the inhibition at 0.1 µM is not above 19% at NOX2 and not below 80% on NOX1 (100 nM). The inhibition at 1 µM against NOX2, at NOX1 (1000 nM) and against NOX4 was not below 80% throughout. Moreover, the “% Inhibition NOX4” value at NOX4 (100 nM) is reported as “C (the percent of inhibition of NOX by the compounds ranges from 2000 to 49%)”.
For `COc1cc2[nH]c(-c3ccccc3[N+](=O)[O-])c(O)c(=O)c2cc1OC` [Compound 29, 3-hydroxy-6,7-dimethoxy-2-(2-nitrophenyl) quinolin-4(1H)-one 2,2,2-trifluoroacetate], the “% Inhibition NOX2” value at NOX2 (100 nM) is reported as “C (the percent of inhibition of NOX by the compounds ranges from 2000 to 49%)”. For the same molecule, the inhibition at 1 µM at NOX2 is not below 80%; at NOX1 (1000 nM) it was not below 80%; against NOX4, 50 to 79%. Besides, the inhibition at 0.1 µM against NOX1 (100 nM) is not below 80%; against NOX4 (HEK293, 100 nM), 50 to 79%.
On to `COc1cc2[nH]c(-c3ccc(Cl)cc3)c(O)c(=O)c2cc1OC` [Compound 45], for which the “% Inhibition NOX2” value on NOX2 (100 nM) and on NOX2 (1000 nM) was “D (the percent of inhibition of NOX by the compounds is smaller than or equals to 19% o)” in each case. Further, on NOX1 (1000 nM), the “% Inhibition NOX1” value was “A (the percent of inhibition of NOX by the compounds is larger than or equals to 80%)”. Further, at NOX1 (100 nM), the inhibition at 0.1 µM was not above 19%. Besides, the “% Inhibition NOX4” value at NOX4 (100 nM, 0.1 µM) was “C (the percent of inhibition of NOX by the compounds ranges from 2000 to 49%)”; on NOX4 (1000 nM) it was “B (the percent of inhibition of NOX by the compounds ranges from 50% o to 79% o)”.
For `COc1cc2[nH]c(-c3ccccc3OC)c(O)c(=O)c2cc1OC` [Compound 5], the “% Inhibition NOX2” value at NOX2 (1000 nM) was “A (the percent of inhibition of NOX by the compounds is larger than or equals to 80%)”. Moreover, the inhibition at 0.1 µM against NOX2 is not above 19%. Moreover, the “% Inhibition NOX1” value on NOX1 (100 nM) and at NOX1 (1000 nM) was “A (the percent of inhibition of NOX by the compounds is larger than or equals to 80%)” in each case. Further, the “% Inhibition NOX4” value at NOX4 (100 nM) is recorded as “C (the percent of inhibition of NOX by the compounds ranges from 2000 to 49%)”; at NOX4 (1000 nM) it was “A (the percent of inhibition of NOX by the compounds is larger than or equals to 80%)”.
Consider `COc1cc2[nH]c(-c3ccccc3C(F)(F)F)c(O)c(=O)c2cc1OC` [Compound 44, 3-hydroxy-6,7-dimethoxy-2-(2-(trifluoromethyl)phenyl)quinolin-4(1H)-one methanesulfonate], for which the “% Inhibition NOX2” value at NOX2 (100 nM, methanesulfonate, 0.1 µM) is reported as “C (the percent of inhibition of NOX by the compounds ranges from 2000 to 49%)”; on NOX2 (1000 nM, methanesulfonate, 1 µM) it was “A (the percent of inhibition of NOX by the compounds is larger than or equals to 80%)”.
